Results published in US7273604B2, “Anti-asthmatic combinations comprising surface active phospholipids” (Britannia Pharmaceuticals Limited, priority 1998, dated 2007).
Where “and” joins values, the source holds several entries; their conditions need not be identical. Equal entries are not always repeated.

Tested on: bronchial epithelium
Test: Binding (adsorption) of 14C-labelled DPPC to bronchial epithelium sections, liquid scintillation counting
Set-up: species or system porcine
Description: • L-α-Phosphatidylcholine, 1,2-di[1-^14 C]palmitoyl in Toluene:Ethanol (1:1 v/v), 114 mCi/mmol, 50 μCi in 2 mL (CFA6O4 B36, Amersham) • L-α-Phosphatidylcholine, dipalmitoyl (C16:0) (P-6267, Sigma) • DL-α-Phosphatidyl-DL-glycerol, dipalmitoyl (C16:0) (P-5650, Sigma) • Egg Phosphatidylglycerol (Batch 24756, Macfarlan Smith, Ltd.) • Sodium Chloride, 0.9%, B.P. (Baxter Healthcare) • Calcium Chloride (C-4901, Sigma) • Toluene (T-4428, Sigma) • Ethanol, AnalaR (10107.7Y, BDH) • NCS-II Tissue Solubilizer, 0.5N Solution (NNCS-502), Amersham) • OCS Organic Counting Scintillant (NOCS104, Amersham) In preparation for the dispersions in which the epithelium would be incubated, stock solutions of the phospholipid components were prepared on the first day of Run 1. These solutions were as follows: • L-α-DPPC, 2.4 mg. mL^−1 in toluene:ethanol, 1:1 • DL-α-DPPG, 3.0 mg. mL^−1 in toluene:ethanol, 1:1 • Egg PG, 3.0 mg. mL^−1 in toluene:ethanol, 1:1 All of the above solutions were stored at 4° C. in glass vials, the threads of which were sealed with teflon tape to minimise evaporation of the solvent. Each glass vial was then placed inside a second, tightly capped glass vial. These solutions were used for each of the five runs in the trial. A solution of 200 mg. L^−1 CaCl^2 in 0.9% saline was also prepared on the first day of Run 2 and was used in each of Runs 2 to 5. […]
Four dispersions were prepared on the first day of each run. […] In addition, Group 2 received 5.5 μL (16.5 μg) DL-α-DPPG, while the same quantity of egg PG was added to Group 3. […] When the number of sections was increased, the volumes of all components were increased accordingly, keeping all quantities in the same proportions as above. […]

Row | Total DPPC Adsorbed to Bronchial Epithelium, Mean (mean of n 10 sections, incubation at 37° C. for 24 h in 0.9% saline dispersion, rinsed 20 times) | SMILES | binding of DPPC to bronchial epithelium (in words) (DPPC in the presence of the named phosphatidyl glycerol, 1:1, compared with DPPC only) | Total DPPC Adsorbed to Bronchial Epithelium (individual sections, incubation at 37° C. for 24 h in 0.9% saline dispersion, rinsed 20 times)
1 | – | CCCCCCCCCCCCCCCC(=O)OCC(COP(=O)(O)OCC(O)CO)OC(=O)CCCCCCCCCCCCCCC (racemic) [DPPG, DL-α-Phosphatidyl-DL-glycerol, dipalmitoyl (C16:0)] | increased binding of DPPC to bronchial epithelium | –
2 | 0.291 μg/cm^2 | CCCCCCCCCCCCCCCC(=O)OC[C@H](COP(=O)([O-])OCC[N+](C)(C)C)OC(=O)CCCCCCCCCCCCCCC [DPPC, dipalmitoyl phosphatidyl choline] | – | 0.280 μg/cm^2 and 0.528 μg/cm^2 and 0.192 μg/cm^2 and 0.340 μg/cm^2 and 0.321 μg/cm^2 and 0.341 μg/cm^2 and 0.299 μg/cm^2 and 0.219 μg/cm^2 and 0.116 μg/cm^2 and 0.276 μg/cm^2
